For 26 compounds, half-life, EC50 and IC50 results are on record in ChEMBL document CHEMBL5346914, “Optimization of carbazole carboxamide RORγt agonists: Challenges in improving the metabolic stability and maintaining the agonistic activity” (Eur J Med Chem, 2023).

Data set [1] is described as follows: Microsomal stability in mouse liver microsome assessed as half life at 1 uM preincubated for 10 mins followed by NADPH addition measured upto 60 mins by HPLC-MS/MS analysis. The class given is ADME. As to conditions: liver microsomes, time < 70 min. (Liver microsomes are a subcellular fraction often used to study metabolism.)
For data set [2], the target named is T1, Nuclear receptor ROR-gamma (Homo sapiens, UniProt P51449).
T1 sequence (P51449 whole entry): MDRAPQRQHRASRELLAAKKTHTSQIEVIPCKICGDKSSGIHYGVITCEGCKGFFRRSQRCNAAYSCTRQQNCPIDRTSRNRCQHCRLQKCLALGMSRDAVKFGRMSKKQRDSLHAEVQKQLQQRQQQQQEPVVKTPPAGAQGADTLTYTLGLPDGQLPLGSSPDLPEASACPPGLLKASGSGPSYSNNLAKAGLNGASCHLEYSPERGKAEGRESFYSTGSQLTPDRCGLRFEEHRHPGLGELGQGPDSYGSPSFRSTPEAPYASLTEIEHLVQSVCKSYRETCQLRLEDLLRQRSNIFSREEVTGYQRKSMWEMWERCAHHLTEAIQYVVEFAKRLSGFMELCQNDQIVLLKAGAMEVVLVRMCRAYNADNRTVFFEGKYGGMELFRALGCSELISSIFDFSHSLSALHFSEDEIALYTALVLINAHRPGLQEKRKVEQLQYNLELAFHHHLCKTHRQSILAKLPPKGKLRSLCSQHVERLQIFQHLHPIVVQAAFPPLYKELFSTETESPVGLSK
Kind of data set: Agonist activity at human RORgammat LBD (265 to 507 residues) expressed in Escherichia coli BL21(DE3) cells incubated for 1 hr FRET assay.

For data set [3], the target named is T1, Nuclear receptor ROR-gamma. Kind of data set: Agonist activity at Gal4-fused human RORgammat LBD expressed in HEK293T cells assessed as luciferase activity incubated for 16 to 20 hrs by luciferase reporter gene assay. The class given is cell-based. On the technique in general: A reporter such as luciferase makes a cellular process visible.
Data set [4] has as its target T1, Nuclear receptor ROR-gamma. Put plainly: Inverse agonist activity at human RORgammat LBD (265 to 507 residues) expressed in Escherichia coli BL21(DE3) cells incubated for 1 hr FRET assay.

One may read the half-life as how long it takes for the measured level to halve. For `CCn1c2ccc(CC3CC3)cc2c2cc(C(=O)N[C@H](COC)c3ccc(S(=O)(=O)CC)cc3)ccc21`, the half-life at 1 µM in data set [1] amounted to 40.8 min.

In the case of `CCn1c2ccc(CC3CC3)cc2c2cc(C(=O)NCc3ccc(S(=O)(=O)CC)cc3)ccc21`, the half-life at 1 µM in data set [1] was 48.8 min.

For orientation: EC50 means the concentration needed to bring the measured effect to its halfway point. As to `CCn1c2ccc(CC(C)C)cc2c2cc(C(=O)NCc3ccc(S(=O)(=O)CC)cc3)ccc21`, the EC50 in data set [2] was 10.9 nM. The half-life at 1 µM in data set [1] is 26.9 min.

Consider `CCn1c2ccc(CC3CC3)cc2c2cc(C(=O)NCc3ccc(S(C)(=O)=O)cn3)ccc21`, for which the EC50 in data set [2] was determined as 12.5 nM.

In data set [2], `CCn1c2ccc(OC(C)C)cc2c2cc(C(=O)NCc3ccc(S(=O)(=O)CC)cn3)ccc21` showed an EC50 of 5.6 nM. For the same compound, the half-life at 1 µM in data set [1] amounted to 18.2 min.

With `CCn1c2ccc(C(=O)NCc3ccc(S(=O)(=O)CC)cc3)cc2c2c(OC(C)C)cccc21`, it took 29.4 nM to reach a half-maximal effect in data set [2] (EC50).

In turn, `CCn1c2ccc(OC(C)C)cc2c2cc(C(=O)NCc3ccc(S(C)(=O)=O)cc3)ccc21` had an EC50 in data set [2] of 12.1 nM. Further, the half-life at 1 µM in data set [1] was 14.8 min.

With `CCn1c2ccc(CC(C)(C)F)cc2c2cc(C(=O)NCc3ccc(S(=O)(=O)CC)cc3)ccc21`, in data set [2], a half-maximal response (EC50) required 10.3 nM. In addition, the half-life at 1 µM in data set [1] was 20.8 min.

For `CCn1c2ccc(OC3CCC3)cc2c2cc(C(=O)NCc3ccc(S(=O)(=O)CC)cc3)ccc21`, the half-life at 1 µM in data set [1] amounted to 16.4 min.

`CCn1c2ccc(CC(C)C(F)(F)F)cc2c2cc(C(=O)NCc3ccc(S(=O)(=O)CC)cc3)ccc21` (stereo unspecified): the half-life at 1 µM in data set [1] was 26.2 min.

`CCn1c2ccc(OC(C)C)cc2c2cc(C(=O)NCc3ccc(S(=O)(=O)CC)cc3)ccc21`: in data set [1], the half-life at 1 µM came out at 8.7 min.

As for `CCS(=O)(=O)c1ccc(CNC(=O)c2ccc3c(c2)c2cc(CC4CC4)ccc2n3CCF)cc1`, the EC50 worked out at 15.7 nM in data set [2] and 245 nM in data set [3]. Also, in data set [1], the half-life at 1 µM is 80.4 min.

The term IC50 denotes the concentration that inhibits the measured activity by half. A low value points to inhibition by little substance. In the case of `CCn1c2ccc(CC3COC3)cc2c2cc(C(=O)NCc3ccc(S(=O)(=O)CC)cc3)ccc21`, the IC50 in data set [4] is 6590 nM.

For the compound `CCn1c2ccc(CN(C)C)cc2c2cc(C(=O)NCc3ccc(S(=O)(=O)CC)cc3)ccc21`, in data set [2], it took 181 nM to reach a half-maximal effect (EC50).

`CCn1c2ccc(CC3CC3)cc2c2cc(C(=O)NCc3ccc(S(=O)(=O)CC)cn3)ccc21` came in with an EC50 in data set [2] of 9.7 nM.

In the case of `CCn1c2ccc(CC3CC3)cc2c2cc(C(=O)N[C@@H](COC)c3ccc(S(=O)(=O)CC)cc3)ccc21`, the half-life at 1 µM in data set [1] is more than 154 min.

On to `CCS(=O)(=O)c1ccc(CNC(=O)c2ccc3c(c2)c2cc(OC(C)C)ccc2n3CCF)cc1`, for which the response in data set [2] was half-maximal at 7.8 nM (EC50). The half-life at 1 µM in data set [1] came to 14.1 min.

Turning to `CCn1c2ccc(CC3CCC3)cc2c2cc(C(=O)NCc3ccc(S(=O)(=O)CC)cc3)ccc21`, the EC50 in data set [2] is 12.6 nM.

For the compound `CCn1c2ccc(OC(C)C(F)(F)F)cc2c2cc(C(=O)NCc3ccc(S(=O)(=O)CC)cc3)ccc21` (stereo unspecified), the half-life at 1 µM in data set [1] was 19.9 min.

With `CCn1c2ccc(OC(C)C)cc2c2cc(C(=O)NCc3ccc(S(C)(=O)=O)cn3)ccc21`, in data set [1], the half-life at 1 µM worked out at 17 min.

On to `CCn1c2ccc(OCC(C)C)cc2c2cc(C(=O)NCc3ccc(S(=O)(=O)CC)cc3)ccc21`, for which the half-life at 1 µM in data set [1] turned out to be 20.4 min.

In the case of `CCn1c2ccc(OC3CC3)cc2c2cc(C(=O)NCc3ccc(S(=O)(=O)CC)cc3)ccc21`, the half-life at 1 µM in data set [1] stood at 16.5 min.

Turning to `CCn1c2ccc(OC(C)C)cc2c2cc(C(=O)NC(CO)c3ccc(S(=O)(=O)CC)cc3)ccc21` (racemic), in data set [1], the half-life at 1 µM came out at 17.9 min.

`CCn1c2ccc(CC3CC3)cc2c2cc(C(=O)NC(CO)c3ccc(S(=O)(=O)CC)cc3)ccc21` (racemic) gave an EC50 in data set [2] of 14.7 nM. The half-life at 1 µM in data set [1] amounted to 41.4 min.

Take `CCS(=O)(=O)c1ccc(C(COC)NC(=O)c2ccc3c(c2)c2cc(CC4CC4)ccc2n3CCF)cc1` (racemic): the results for the EC50 in data set [2] and in data set [3] were 28.3 nM and 348 nM, respectively. The half-life at 1 µM in data set [1] amounted to 37.1 min.

Take `CCn1c2ccc(CC3CC3)cc2c2cc(C(=O)NC(COC)c3ccc(S(=O)(=O)CC)cc3)ccc21` (racemic): in data set [1], the half-life at 1 µM was more than 145 min.
